According to patent US4510323A, “Cis-bicyclo[3.3.0]octane derivatives, medicaments containing them and processes for their preparation and use” (Gruenenthal GmbH, priority 1981, dated 1985):

How the values were obtained:
human thrombocytes = test: Inhibition of arachidonic acid induced aggregation of human thrombocytes; format: cell-based; settings: for IC50: arachidonic acid induced aggregation of human thrombocytes; for relative activity: in comparison to prostacyclin = 1.0
Source text: The aggregation of human thrombocytes induced by arachidonic acid may be prevented e.g. by prostacyclin.

narcotized rats [1] = test: ADP induced fall in platelet count in-vivo in narcotized rats, intravenous administration; set-up: species or system rat; settings: urethane narcosis, 5,6-dihydroprostacyclin = 1.0
[2] = target: T1, adenylate cyclase in horse thrombocytes (Equus caballus, UniProt F7CK38); test: Stimulation of adenylate cyclase (c-AMP formation from ATP) in horse thrombocytes; format: biochemical
T1 construct: Gs-coupled adenylate cyclase stimulation, cAMP formation from ATP as read-out
T1 sequence (F7CK38 1-384): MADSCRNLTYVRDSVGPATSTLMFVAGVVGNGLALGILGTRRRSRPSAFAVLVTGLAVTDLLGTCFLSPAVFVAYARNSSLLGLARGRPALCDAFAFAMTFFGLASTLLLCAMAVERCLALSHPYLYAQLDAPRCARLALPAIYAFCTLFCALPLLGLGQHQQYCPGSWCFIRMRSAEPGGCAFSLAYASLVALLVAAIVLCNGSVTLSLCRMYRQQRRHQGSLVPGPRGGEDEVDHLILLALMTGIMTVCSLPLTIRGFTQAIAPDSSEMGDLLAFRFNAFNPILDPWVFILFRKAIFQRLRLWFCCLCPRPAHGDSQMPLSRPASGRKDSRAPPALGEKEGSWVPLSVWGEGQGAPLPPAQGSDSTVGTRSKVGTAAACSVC
Source text: The enzyme adenylate cyclase catalyzes the formation of adenosine 3',5'-cyclic monophosphate (c-AMP) from adenosine triphosphate (ATP).
*Dose causing a threefold stimulation of the cAMP formation from ATP.

[3] = tested on: conscious, spontaneous hypertensive rats; test: Blood pressure lowering activity in conscious, spontaneous hypertensive rats; format: in vivo, rat; settings: intravenous; for relative activity: blood pressure lowering, conscious SHR, 5,6-dihydroprostacyclin = 1.0; for ED (20 mm Hg): Rattus norvegicus, read-out: ED20 (dose causing a drop of the diastolic blood pressure by 20 mm Hg)
Source text: Blood pressure lowering activity in conscious,
spontaneous hypertensive rats (measurement via in-
dwelling catheter, intravenous administration of the […]

narcotized rats [4] = test: Blood pressure lowering activity in narcotized rats (pentobarbital narcosis); format: in vivo, rat; settings: intravenous; for ED (20 mm Hg): Rattus norvegicus, pentobarbital narcosis, read-out: ED20 (dose causing a drop of the diastolic blood pressure by 20 mm Hg); for relative activity: blood pressure lowering, prostacyclin = 1.0
Source text: Blood pressure lowering activity in nar-
cotized rats (pentobarbital narcosis; intravenous

narcotized rats [5] = test: Thrombocyte aggregation inhibition after oral administration (ADP induced fall in thrombocyte count in-vivo) in narcotized rats; set-up: species or system rat; settings: for % inhibition of platelet aggregation: narcotized rats (urethane)
Protocol: In this experiment the product obtained in Example 2 was administered orally in a dose of 4.64 mg/kg of narcotized rats (urethane narcosis). The thrombocyte aggregation inhibiting activity was determined at 30, 60 and 150 minutes after administration of the compound (Method: ADP induced fall in thrombocyte count in-vivo, determined by a "Technicon Autocounter").

narcotized rats [6] = test: Persistence of blood pressure lowering activity after supramaximal hypotensive dose in narcotized rats; format: in vivo, rat; settings: for half time of b.p.l.a. (blood pressure lowering activity) / rate of decay of blood pressure lowering activity: 1 mg/kg intravenous, narcotized rats (pentobarbital)
Protocol: On intravenous administration of a supra-
maximal hypotensive dose (1 mg/kg) of the test com-
pounds in narcotized rats (pentobarbital narcosis) the
following persistence characteristics of the blood
pressure lowering activity ("b.p.l.a.") were observed: […]

narcotized rats [7] = settings: stated as known; cited from earlier work
[8] = tested on: platelet aggregation induced by arachidonic acid; settings: in vitro, Whittle et al., page 611; cited from earlier work
[9] = conscious spontaneous hypertensive rats, indwelling catheter

Compound | IC50 (human thrombocytes) | relative activity (human thrombocytes) | relative activity (narcotized rats [1]) | EC200% (dose causing a threefold stimulation of the cAMP formation from ATP) [2] | relative activity [3] | ED (20 mm Hg) [3, 9] | other results
CCCCCC(O)C=CC1C(O)CC2OC(CCCCC(=O)O)CC21 (centres unmarked) [5,6-Dihydroprostacyclin, 5,6-dihydroprostacyclin, reference compound] | 180 nM | 0.043 | 1.0 | 15.0 µmol/L | 1.0 |  | relative activity ([2]; relative to 5,6-dihydroprostacyclin = 1.0, adenylate cyclase stimulation): 1.0; ED20 (dose causing a drop of the diastolic blood pressure by 20 mm Hg) [3, 9]: 5 µg/kg
CCCCC[C@H](O)/C=C/[C@@H]1[C@H]2CC(=Cc3cccc(C(=O)O)c3)C[C@H]2C[C@H]1O [Compound A, 3-(m-carboxybenzylidene)-6-beta-(3'S-hydroxy-1'E-octenyl)-7-alpha-hydroxy- cis-bicyclo[3.3.0]octane, reference compound] | 120 nM | 0.065 | 0.1 | 0.4 µmol/L | 0.003 | 1.9 mg/kg | 
O=C(O)c1cccc(C=C2C[C@H]3C[C@@H](O)[C@H](/C=C/[C@@H](O)C4CCCCC4)[C@H]3C2)c1 [Example 1e, 3EZ-(m-carboxybenzylidene)-6β-(3'S-hydroxy-3'-cyclohexyl-1'E-propenyl)-7α-hydroxy-cis-bicyclo[3.3.0]octane] | 80 nM | 0.098 | 1.0 | 0.15 µmol/L | 0.068 | 0.073 mg/kg | 
O=C(O)c1cccc(/C=C2\C[C@H]3C[C@@H](O)[C@H](/C=C/[C@@H](O)C4CCCCC4)[C@H]3C2)c1 [Example 2, 3E-(m-Carboxybenzylidene)-6β-(3'S-hydroxy-3'-cyclohexyl-1'E-propenyl)-7α-hydroxy-cis-bicyclo[3.3.0]octane] | 70 nM | 0.11 | 1.0 | 0.13 µmol/L | 0.053 | 0.094 mg/kg | ED (20 mm Hg) (narcotized rats [4]): 5.39 mg/kg; relative activity (narcotized rats [4]): 0.03; % inhibition of platelet aggregation (narcotized rats [5]; 30 min after oral 4.64 mg/kg): 38%; % inhibition of platelet aggregation (narcotized rats [5]; 60 min after oral 4.64 mg/kg): 26%; % inhibition of platelet aggregation (narcotized rats [5]; 150 min after oral 4.64 mg/kg): 22%; duration of strong thrombocyte aggregation inhibition (narcotized rats [5]; oral administration): at least 2.5 hours; half time of b.p.l.a. (blood pressure lowering activity) (narcotized rats [6]): 25.96 min; rate of decay of blood pressure lowering activity (narcotized rats [6]): 2.6 % per min.; duration of action relative to prostacyclin (narcotized rats [6]; blood pressure lowering activity, from Table 5): about 5 times
O=C(O)c1cccc(C=C2CC3CC(O)C(C=CC(O)C45CC6CC(CC(C6)C4)C5)C3C2)c1 (stereo not drawn) [Example 3e, 3EZ-(m-Carboxybenzylidene)-6β-[3'S-hydroxy-3'-(1"-adamantyl)-1'E-propenyl]-7α-hydroxy-cis-bicyclo[3.3.0]octane] |  |  |  | 0.18 µmol/L | < 0.005 | > 1 mg/kg | 
CCCCC[C@H](O)/C=C/[C@@H]1[C@H]2C/C(=C/CCCC(=O)O)O[C@H]2C[C@H]1O [Prostacyclin, reference compound] | 7.8 nM |  |  |  |  |  | ED (20 mm Hg) (narcotized rats [4]): 0.16 mg/kg; relative activity (narcotized rats [4]): 1.0; half time of b.p.l.a. (blood pressure lowering activity) (narcotized rats [6]): 5.89 min; rate of decay of blood pressure lowering activity (narcotized rats [6]): 11 % per min.; effectiveness on oral administration (narcotized rats [7]): ineffective
CCCCC[C@H](O)/C=C/[C@@H]1[C@H]2C/C(=C/CCCC(=O)O)C[C@H]2C[C@H]1O [carbacyclin] |  |  |  |  |  |  | activity relative to prostacyclin as inhibitor of platelet aggregation [8]: 0.02 times
